pIC50: −log10 of the molar value. Where two headings read alike, the source gives them in different places.
How the values were obtained:
[1] = tested on: acute myelogenous leukemia cells (MV-4-11 cells); assay: Cytotoxicity to acute myelogenous leukemia cells (MV-4-11 cells), CCK-8; settings: Homo sapiens, MV4-11, 72 h
[2] = target: BRD4 (BD1+BD2) bromodomain (Homo sapiens (Human), UniProt O60885); assay: BRD4 binding inhibition (AlphaScreen, GST-BRD4 vs tetraacetylated histone H4 peptide)
In short: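 GST-BRD4 (BD1+BD2) and biotinylated tetraacetyl-histone H4 peptide, each at 100 nM in HEPES pH 7.4 buffer with BSA and DTT, were combined with compound. Glutathione acceptor and streptavidin donor beads were added, then incubated 30 min at room temperature in the dark. Read-out was AlphaScreen signal.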

[3] = tested on: thymus cancer cells (Ty-82 cells); assay: Cytotoxicity to thymus cancer cells (Ty-82 cells), WST-1; settings: Homo sapiens, TY82, 72 h
[4] = read-out: IC50, cytotoxicity against acute myelogenous leukemia cells
[5] = read-out: MV-4-11 Cytotoxicity IC50
[6] = GST-BRD4 (BD1+BD2) / biotinylated acetyl-histone H4 (Lys5,8,12,16) peptide, read-out: IC50, BRD4 binding inhibition
[7] = GST-BRD4 (BD1+BD2) vs biotinylated acetyl-histone H4 peptide, AlphaScreen, read-out: BRD4 IC50
[8] = read-out: IC50, cytotoxicity against thymus cancer cells
[9] = read-out: Ty-82 Cytotoxicity IC50

SMILES	pIC50 [1, 4]	pIC50 [1, 5]	pIC50 [2, 6]	pIC50 [2, 7]	pIC50 [3, 8]	pIC50 [3, 9]
C=CCOC(=O)NCCCCNc1nc2cc(OC)c(OC)cc2n2c(C)nnc12 [Example 65, [4-(7,8-dimethoxy-1-methyl-[1,2,4]triazolo[4,3-a]quinoxaline-4-ylamino)-butyl]-carbamic acid allylester]	≥ 6.70	6.89	≥ 7.30	7.66	≥ 6.30	6.43
COc1cc2nc(NCCCCNC(=O)CC(C)(C)C)c3nnc(C)n3c2cc1OC [Example 75, N-[4-(7,8-dimethoxy-1-methyl-[1,2,4]triazolo[4,3-a]quinoxaline-4-ylamino)-butyl]-3,3-dimethyl-butyramide]		6.47	≥ 7.30	7.55		6.10
COc1cc2nc(NCCCCNC(=O)NC3CCCCC3)c3nnc(C)n3c2cc1OC [Example 93, 1-cyclohexyl-3-[4-(7,8-dimethoxy-1-methyl-[1,2,4]triazolo[4,3-a]quinoxaline-4-ylamino)-butyl]-urea]		6.47	≥ 7.30	7.41		6.25
COCCOc1cc2nc(NCCCCNC(=O)OCC(C)C)c3nnc(C)n3c2cc1OCCOC [Example 168, {4-[7,8-bis-(2-methoxy-ethoxy)-1-methyl-[1,2,4]triazolo[4,3-a]quinoxaline-4-ylamino]-butyl}-carbamic acid isobutylester]	≥ 6.70	7.05	≥ 7.30	7.80		6.22
COc1cc2nc(NCCCCNC(=O)OC(C)(C)C)c3nnc(C)n3c2cc1OC [Example 57, [4-(7,8-dimethoxy-1-methyl-[1,2,4]triazolo[4,3-a]quinoxaline-4-ylamino)-butyl]-carbamic acid-tert-butylester]		6.12	≥ 7.30	7.70		6.13
COc1ccc2c(c1)nc(NCCCCNC(=O)C(C)(C)C)c1nnc(C)n12 [Example 277, N-[4-(7-methoxy-1-methyl-[1,2,4]triazolo[4,3-a]quinoxaline-4-ylamino)-butyl]-2,2-dimethyl-propionamide]		6.26				6.03
CCC(C)C(=O)NCCCCNc1nc2cc(OC)c(OC)cc2n2c(C)nnc12 (centres unmarked) [Example 77, N-[4-(7,8-dimethoxy-1-methyl-[1,2,4]triazolo[4,3-a]quinoxaline-4-ylamino)-butyl]-2-methyl-butyramide]	≥ 6.70	6.82	≥ 7.30	7.66		6.04
COc1ccc2c(c1)nc(NCCCCNC(=O)CC(C)C)c1nnc(C)n12 [Example 285, N-[4-(7-methoxy-1-methyl-[1,2,4]triazolo[4,3-a]quinoxaline-4-ylamino)-butyl]-3-methyl-butyramide]	≥ 6.70	8.00	≥ 7.30	7.77	≥ 6.30	7.04
CC(=O)Nc1ccc2c(c1)nc(NCCCCNC(=O)c1ccccc1)c1nnc(C)n12 [Example 251, N-[4-(7-acetylamino-methyl-[1,2,4]triazolo[4,3-a]quinoxaline-4-ylamino)-butyl]-benzamide]			≥ 7.30			6.17
Cc1nnc2c(NCCCCC(=O)NCC(C)C)nc3ccccc3n12 [Example 660, 5-(1-methyl-[1,2,4]triazolo[4,3-a]quinoxaline-4-ylamino)-pentanoic acid isobutylamide]			≥ 7.30	7.44		6.08
COc1cc2nc(NCCCCNC(=O)Cc3cccs3)c3nnc(C)n3c2cc1OC [Example 84, N-[4-(7,8-dimethoxy-1-methyl-[1,2,4]triazolo[4,3-a]quinoxaline-4-ylamino)-butyl]-2-thiophene-2-yl-acetamide]	≥ 6.70	8.00	≥ 7.30	7.85	≥ 6.30	7.57
COCCOc1cc2nc(NCCCCNC(=O)c3ccccc3Cl)c3nnc(C)n3c2cc1OCCOC [Example 171, N-{4-[7,8-bis-(2-methoxy-ethoxy)-1-methyl-[1,2,4]triazolo[4,3-a]quinoxaline-4-ylamino]-butyl}-2-chloro-benzamide]			≥ 7.30	7.59		6.24
Cc1nnc2c(NCCCCNC(=O)OC(C)(C)C)nc3cc(C(=O)NC(C)C)ccc3n12 [Example 202, [4-(7-isopropylcarbamoyl-1-methyl-[1,2,4]triazolo[4,3-a]quinoxaline-4-ylamino)-butyl]-carbamic acid-tert-butylester]			≥ 7.30	7.36		6.19
Cc1nnc2c(NCCCCNC(=O)c3ccccc3Cl)nc3ccccc3n12 [Example 12]				7.24		6.07
CC(=O)Nc1ccc2c(c1)nc(NCCCCNC(=O)OC(C)(C)C)c1nnc(C)n12 [Example 249, [4-(7-acetylamino-methyl-[1,2,4]triazolo[4,3-a]quinoxaline-4-ylamino)-butyl]-carbamic acid-tert-butylester]			≥ 7.30		≥ 6.30	6.40
Cc1nnc2c(NCCCCNC(=O)C(C)(C)C)nc3ccccc3n12 [Example 3, 2,2-dimethyl-N-[4-(1-methyl-[1,2,4]triazolo[4,3-a]quinoxaline-4-ylamino)-butyl]-propionamide]			≥ 7.30	7.55		6.04
Cc1nnc2c(NCCCCNC(=O)C(C)(C)C)nc3cc(NC(=O)C(C)C)ccc3n12 [Example 247, N-[4-(7-isobutyramido-1-methyl-[1,2,4]triazolo[4,3-a]quinoxaline-4-ylamino)-butyl]-2,2-dimethyl-propionamide]			≥ 7.30	7.51	≥ 6.30	6.40
COc1cccc2c1nc(NCCCCNC(=O)OCC(C)C)c1nnc(C)n12 [Example 120, N-[4-(6-methoxy-1-methyl-[1,2,4]triazolo[4,3-a]quinoxaline-4-ylamino)-butyl]-carbamic acid isobutylester]			≥ 7.30	7.47		6.21
Cc1nnc2c(NCCCCNC(=O)c3ccccc3)nc3ccccc3n12 [Example 11, N-[4-(1-methyl-[1,2,4]triazolo[4,3-a]quinoxaline-4-ylamino)-butyl]-benzamide]		6.15				6.02
CC(=O)Nc1ccc2c(c1)nc(NCCCCNC(=O)C(C)(C)C)c1nnc(C)n12 [Example 250, N-[4-(7-acetylamino-methyl-[1,2,4]triazolo[4,3-a]quinoxaline-4-ylamino)-butyl]-2,2-dimethyl-propionamide]			≥ 7.30		≥ 6.30	6.52
COc1cc2nc(NCCCCNC(=O)OC(C)(C)C)c3nnc(C)n3c2cc1C [Example 464, [4-(7-methoxy-1,8-dimethyl-[1,2,4]triazolo[4,3-a]quinoxaline-4-ylamino)-butyl]-carbamic acid-tert-butylester]				7.21		6.10
Cc1nnc2c(NCCCCNC(=O)CC(C)C)nc3ccccc3n12 [Example 7, 3-methyl-N-[4-(1-methyl-[1,2,4]triazolo[4,3-a]quinoxaline-4-ylamino)-butyl]-butyramide]			≥ 7.30	7.70	≥ 6.30	6.59
COc1c(C)ccc2c1nc(NCCCCNC(=O)OC(C)C)c1nnc(C)n12 [Example 133, [4-(6-methoxy-1,7-dimethyl-[1,2,4]triazolo[4,3-a]quinoxaline-4-ylamino)-butyl]-carbamic acid isopropylester]			≥ 7.30	7.47		6.06
Cc1nnc2c(NCCCCNC(=O)OC(C)C)nc3ccccc3n12 [Example 4, [4-(1-methyl-[1,2,4]triazolo[4,3-a]quinoxaline-4-ylamino)-butyl]-carbamic acid isopropylester]			≥ 7.30			6.19
Cc1nnc2c(NCCCCNC(=O)c3ccccc3)nc3cc(C(=O)NC(C)C)ccc3n12 [Example 205, 4-(4-benzoylamino-butylamino)-1-methyl-[1,2,4]triazolo[4,3-a]quinoxaline-7-carboxylic acid isopropylamide]				7.12		6.26
Cc1nnc2c(NCCCCNC(=O)OC(C)(C)C)nc3cc(C(=O)Nc4ccccc4)ccc3n12 [Example 212, [4-(1-methyl-7-phenylcarbamoyl-[1,2,4]triazolo[4,3-a]quinoxaline-4-ylamino)-butyl]-carbamic acid-tert-butylester]			≥ 7.30	7.46		6.08
COc1cc2nc(NCCCCNC(=O)C(C)(C)C)c3nnc(C)n3c2cc1C [Example 466]	≥ 6.70	7.08			≥ 6.30	6.47
COc1ccc2nc(NCCCCNC(=O)c3ccc(C)nc3Cl)c3nnc(C)n3c2c1 [Example 129]			≥ 7.30	7.77		6.08
COc1cc2nc(NCCCCNC(=O)c3ccc([N+](=O)[O-])cc3)c3nnc(C)n3c2cc1OC [Example 101, N-[4-(7,8-dimethoxy-1-methyl-[1,2,4]triazolo[4,3-a]quinoxaline-4-ylamino)-butyl]-4-nitro-benzamide]				7.29		6.06

Source: patent US11028090B2 (Dong Wha Pharm. Co., Ltd., priority 2017, dated 2021)
